# In US5654139A (The United States of America as represented by the …, priority 1994, dated 1997):
# What was measured:
# [1] = molecular target: T1, human 5-HT2Ccys receptor (Homo sapiens, UniProt P28335); experiment: Two-electrode voltage-clamp recording of 5-HT-activated currents in Xenopus oocytes expressing 5-HT2Ccys; assay type: cell-based
# T1 construct: consisting of the entire coding region of the 5-HT2C receptor; expressed in transfected cells; host or cells: Xenopus laevis oocytes injected with cRNA
# T1 sequence (P28335 33-458): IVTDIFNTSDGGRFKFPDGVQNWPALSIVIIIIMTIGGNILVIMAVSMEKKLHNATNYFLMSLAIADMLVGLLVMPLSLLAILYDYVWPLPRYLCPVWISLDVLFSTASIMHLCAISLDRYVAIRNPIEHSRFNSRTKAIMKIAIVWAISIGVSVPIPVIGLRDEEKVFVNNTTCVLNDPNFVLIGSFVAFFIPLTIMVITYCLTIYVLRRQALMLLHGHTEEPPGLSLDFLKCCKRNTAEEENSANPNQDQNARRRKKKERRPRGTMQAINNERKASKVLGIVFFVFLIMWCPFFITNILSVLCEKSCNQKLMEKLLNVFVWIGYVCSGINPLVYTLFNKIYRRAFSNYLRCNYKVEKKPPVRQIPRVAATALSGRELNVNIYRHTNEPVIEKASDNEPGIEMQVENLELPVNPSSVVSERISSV
# [2] = molecular target: T2, human 5-HT2Cser receptor (Homo sapiens, UniProt P28335); experiment: Two-electrode voltage-clamp recording of 5-HT-activated currents in Xenopus oocytes expressing 5-HT2Cser; assay type: cell-based
# T2 construct: consisting of the entire coding region of the 5-HT2C receptor; expressed in transfected cells; host or cells: Xenopus laevis oocytes injected with cRNA
# T2 sequence (P28335 33-458): T1 sequence (P28335 33-458)
# [3] = 1 μM PPRZ, voltage-clamp at -70 mV
smiles,measurement,setting,value
"Cl.c1ccc2c(N3CCNCC3)cccc2c1 [PPRZ, 1-(1-naphthyl) piperazine HCL]",effect on currents activated by 10 nM 5-HT,[1]; [3],suppressed
same,reversibility of the effect of PPRZ on 5-HT-activated response,[1]; after a 20 min wash,reversible
same,effect on currents activated by 10 nM 5-HT,[2]; [3],suppressed
same,reversibility of the effect of PPRZ on 5-HT-activated response,[2]; after a 20 min wash,reversible
